# Data: patent US5633345A, “Cyclic peptides” (priority 1992, dated 1997)
# Starred links: 1 amine or outer side, 2 acyl side, 3 side chain; linkers in the order of their positions; H or OH if unused. Non-standard residues stand in square brackets, D forms with d. Residues, ends and D or L forms follow the SMILES beside them. X1 = CC[C@@H](C)[C@@H](O[*:1])C(=O)[*:2]; NMeVal(β-OH) = CN[C@H](C(=O)O)C(C)(C)O; X4 = CC(O)[C@@H](C)C(O[*:1])C(=O)[*:2]; NMeY = CN[C@@H](Cc1ccc(O)cc1)C(=O)O; NMeF = CN[C@@H](Cc1ccccc1)C(=O)O; aIle = CC[C@@H](C)[C@H](N)C(=O)O; Nva(5-OH) = N[C@@H](CCCO)C(=O)O; NMeV = CN[C@H](C(=O)O)C(C)C; Nva = CCC[C@H](N)C(=O)O
# Conditions: mouse, in vivo, ip, 100 mg/kg
smiles,measurement,value
CC[C@@H](C)[C@@H]1NC(=O)[C@@H]2CCCN2C(=O)[C@H](Cc2ccccc2)N(C)C(=O)[C@H](Cc2ccccc2)NC(=O)[C@H](C(C)C)N(C)C(=O)C([C@H](C)C(C)O)OC(=O)[C@H](C(C)(C)O)N(C)C(=O)[C@H](CC(C)C)NC(=O)[C@H](C(C)C)N(C)C1=O (stereo partly drawn) [Compound 17] (cyclo(F[NMeF]P[aIle][NMeV]L[NMeVal(β-OH)][X4][NMeV])),toxicity signs,no toxicity signs
CC[C@@H](C)[C@@H]1NC(=O)[C@@H]2CCCN2C(=O)[C@H](Cc2ccc(O)cc2)N(C)C(=O)[C@H](Cc2ccccc2)NC(=O)[C@H](C(C)C)N(C)C(=O)[C@@H]([C@H](C)CC)OC(=O)[C@H](C(C)(C)O)N(C)C(=O)[C@H](CC(C)C)NC(=O)[C@H](C(C)C)N(C)C1=O [Compound 8] (cyclo(F[NMeY]P[aIle][NMeV]L[NMeVal(β-OH)][X1][NMeV])),toxicity signs,no toxicity signs
"CC[C@@H](C)[C@@H]1NC(=O)[C@@H]2CCCN2C(=O)[C@H](Cc2ccccc2)N(C)C(=O)[C@H](Cc2ccccc2)NC(=O)[C@H](C(C)C)N(C)C(=O)[C@@H]([C@H](C)CC)OC(=O)[C@H](C(C)(C)O)N(C)C(=O)[C@H](CCCO)NC(=O)[C@H](C(C)C)N(C)C1=O [Compound 39, cyclo(L-aIle-L-MeVal-L-HONva-L-βHOMeVal-D-Hmp-L-MeVal-L-Phe-L-MePhe-L-Pro)] (cyclo(F[NMeF]P[aIle][NMeV][Nva(5-OH)][NMeVal(β-OH)][X1][NMeV]))",toxicity signs,no toxicity signs
"CC[C@@H](C)[C@@H]1NC(=O)[C@@H]2CCCN2C(=O)[C@H](Cc2ccccc2)N(C)C(=O)[C@H](Cc2ccccc2)NC(=O)[C@H](C(C)C)N(C)C(=O)[C@@H]([C@H](C)CC)OC(=O)[C@H](C(C)(C)O)N(C)C(=O)[C@H]([C@H](C)CC)NC(=O)[C@H](C(C)C)N(C)C1=O [Compound 24, cyclo(L-aIle-L-MeVal-L-aIle-L-βHOMeVal-D-Hmp-L-MeVal-L-Phe-L-MePhe-L- Pro)] (cyclo(F[NMeF]P[aIle][NMeV][aIle][NMeVal(β-OH)][X1][NMeV]))",toxicity signs,no toxicity signs
"CC[C@@H](C)[C@H]1OC(=O)[C@H](C(C)(C)O)N(C)C(=O)[C@H](CC(C)C)NC(=O)[C@H](C(C)C)N(C)C(=O)[C@H](CC(C)C)NC(=O)[C@@H]2CCCN2C(=O)[C@H](Cc2ccccc2)N(C)C(=O)[C@H](Cc2ccccc2)NC(=O)[C@H](C(C)C)N(C)C1=O [Compound 6] (HELM PEPTIDE1{F.[meF].P.L.[meV].L.[CN([C@H](C(=O)[*:2])C(C)(C)O)[*:1]].[CC[C@@H](C)[C@@H](O[*:1])C(=O)[*:2]].[meV]}$PEPTIDE1,PEPTIDE1,1:R1-9:R2$$$V2.0)",toxicity signs,no toxicity signs
CCC[C@@H]1NC(=O)[C@H](C(C)C)N(C)C(=O)[C@H]([C@H](C)CC)NC(=O)[C@@H]2CCCN2C(=O)[C@H](Cc2ccccc2)N(C)C(=O)[C@H](Cc2ccccc2)NC(=O)[C@H](C(C)C)N(C)C(=O)[C@@H]([C@H](C)CC)OC(=O)[C@H](C(C)(C)O)N(C)C1=O [Compound 12] (cyclo(F[NMeF]P[aIle][NMeV][Nva][NMeVal(β-OH)][X1][NMeV])),toxicity signs,no toxicity signs
"CC[C@@H](C)[C@H]1OC(=O)[C@H](C(C)(C)O)N(C)C(=O)[C@H](CC(C)C)NC(=O)[C@H](C(C)C)N(C)C(=O)[C@H](C(C)C)NC(=O)[C@@H]2CCCN2C(=O)[C@H](Cc2ccccc2)N(C)C(=O)[C@H](Cc2ccccc2)NC(=O)[C@H](C(C)C)N(C)C1=O [Compound 3] (HELM PEPTIDE1{F.[meF].P.V.[meV].L.[CN([C@H](C(=O)[*:2])C(C)(C)O)[*:1]].[CC[C@@H](C)[C@@H](O[*:1])C(=O)[*:2]].[meV]}$PEPTIDE1,PEPTIDE1,1:R1-9:R2$$$V2.0)",toxicity signs,no toxicity signs
